Reference: EP0874242A1, “Device and apparatus for the simultaneous detection of multiple analytes” (Randox Laboratories Ltd., priority 1997, dated 1998)

Legend:
sulphonamide antibodies [1] = assay: Multi-sulphonamide competitive immunoassay, antibodies on APTES ceramic substrates with dihydrazide linker, with or without periodate activation; format: binding
Method: Multi-sulphonamide standards (200 µl) and a cocktail of sulphonamide horseradish peroxidase conjugates (100 µl) were added to the reaction wells containing the device as appropriate and incubated for 15 minutes at room temperature. The standards contained 5, 10, 50 and 100 ng/ml for each of the 12 sulphonamides.
Thereafter the multi-sulphonamide devices were washed with PBS/PEG buffer to remove excess reagents and 300 µl chemiluminescent substrate [luminol (1.4mM)/urea hydrogen peroxide (9.6mM)] per device was introduced. The devices were imaged using a CCD camera with an exposure time of up to 4 minutes. Standard curves were obtained for each of the 12 individual sulphonamides. Calibration curves for each of the 12 individual sulphonamides are represented graphically in Figure 15. The % B/Bo value plotted on the Y-axis represents the % […] of the zero standard RLU (Relative light unit) value caused by each individual sulphonamide standard (plotted on the X-axis as log10).
In a further example, ceramic substrates silanated with APTES were reacted with a dihydrazide linker. Sulphonamide antibodies were treated with sodium periodate to render them reactive towards the hydrazide linker. Control sulphonamide antibodies were simply dialysed against sodium acetate buffer pH 5.5. The RLU results are shown in Tables 4 (not treated) and 5 (treated by periodate method). […] The control antibodies (no periodate activation) gave very poor standard curves when compared to the covalently immobilised sulphonamide antibodies.

sulphonamide antibodies [2] = assay: Multi-sulphonamide competitive immunoassay in microchannels, chemiluminescent CCD detection (Example 3); format: binding; settings: microchannel device, 2 minutes incubation
Method: In contrast to Example 1, a multi-sulphonamide assay has also been conducted using microchannels. The device is illustrated in Figure 11. In this Example, the reagent addition reservoirs 21 are 2 mm x 2 mm, and 300 µm deep (vol. 1.2 µl), the channels 23 are each 5 mm long, 200 µm wide and 100 µm deep (vol. 100 nl), and the reservoir 24 is 1.9 mm x 8.6 mm, and 300 µm deep (vol. 4.9 µl).
The chemical modification of the surface was performed as described in Example 1. Antibody was added to each of the channels and incubated for 2 hours at 37°C. The substrates were then blocked and washed as for Example 1.
A multi-sulphonamide standard (200 µl) and sulphonamide horseradish pexoxidase conjugates (100 µl) were mixed. 1 µl of the resultant reagent was pipetted into each of the reservoirs supplying the antibody-coated channel for each sulphonamide. The standards contained 10 or 100 ng/ml of all the sulphonamides as appropriate.
The reagent flowed by capillary action. After incubation for 2 minutes, the substrate was washed 5 times with PBS/PEG and chemiluminescent reagent [luminol (1.4 mM)/urea hydrogen peroxide (9.6 mM)] was added.
The devices were imaged using a CCD camera with an exposure time of up to 4 minutes.

[3] = 10 ng/ml standard, antibodies treated by periodate method, covalently immobilised (Table 5)
[4] = 10 ng/ml standard, control antibodies not treated with periodate (Table 4)
[5] = 100 ng/ml standard, antibodies treated by periodate method, covalently immobilised (Table 5)
[6] = 100 ng/ml standard, control antibodies not treated with periodate (Table 4)

Q: Which “% B/Bo” value (sulphonamide antibodies [1]; [3]) does the source give for `Nc1ccc(S(=O)(=O)Nc2ccc(Cl)nn2)cc1` [Sulphachloropyridazine, sulphachloropyridazine] here?
A: The value was 30%.

Q: What about the “% B/Bo” value (sulphonamide antibodies [1]; [4]) of the same compound?
A: Its value is 24%.

Q: And the “% B/Bo” value (sulphonamide antibodies [1]; [5])?
A: Its value is 8%.

Q: `COc1cc(NS(=O)(=O)c2ccc(N)cc2)nc(OC)n1` [Sulphadimethoxine, sulphadimethoxine] was tested. Which “% B/Bo” value (sulphonamide antibodies [1]; [3]) did it give?
A: Its value is 46%.

Q: And the “% B/Bo” value (sulphonamide antibodies [1]; [5])?
A: Its value is 36%.

Q: And the “% B/Bo” value (sulphonamide antibodies [1]; [6])?
A: The value was 97%.

Q: Which “% B/Bo” value (sulphonamide antibodies [1]; [3]) does the source give for `COc1ncnc(NS(=O)(=O)c2ccc(N)cc2)c1OC` [Sulphadoxine, sulphadoxine] here?
A: The value was 31%.

Q: What about the “% B/Bo” value (sulphonamide antibodies [1]; [4]) of the same compound?
A: The value was 51%.

Q: What about the “% B/Bo” value (sulphonamide antibodies [1]; [5]) of the same compound?
A: Its value is 20%.

Q: For `Cc1ccnc(NS(=O)(=O)c2ccc(N)cc2)n1` [Sulphamerazine, sulphamerazine], which “% B/Bo” value (sulphonamide antibodies [1]; [3]) is on record?
A: Its value is 43%.

Q: What about the “% B/Bo” value (sulphonamide antibodies [1]; [4]) of the same compound?
A: Its value is 52%.

Q: And the “% B/Bo” value (sulphonamide antibodies [1]; [5])?
A: The value was 26%.

Q: What about the “% B/Bo” value (sulphonamide antibodies [1]; [6]) of the same compound?
A: Its value is 56%.

Q: And the “% B/Bo” value (sulphonamide antibodies [2]; 10 ng/ml standard)?
A: The value was 40%.

Q: And the “% B/Bo” value (sulphonamide antibodies [2]; 100 ng/ml standard)?
A: Its value is 22%.

Q: Which “% B/Bo” value (sulphonamide antibodies [1]; [3]) does the source give for `Cc1cc(C)nc(NS(=O)(=O)c2ccc(N)cc2)n1` [Sulphamethazine, sulphamethazine] here?
A: Its value is 77%.

Q: And the “% B/Bo” value (sulphonamide antibodies [1]; [5])?
A: The value was 61%.

Q: What about the “% B/Bo” value (sulphonamide antibodies [2]; 10 ng/ml standard) of the same compound?
A: The value was 14%.

Q: And the “% B/Bo” value (sulphonamide antibodies [2]; 100 ng/ml standard)?
A: The value was 7%.

Q: Which “% B/Bo” value (sulphonamide antibodies [1]; [3]) does the source give for `Cc1nnc(NS(=O)(=O)c2ccc(N)cc2)s1` [Sulphamethizole, sulphamethizole] here?
A: The value was 33%.

Q: And the “% B/Bo” value (sulphonamide antibodies [1]; [4])?
A: Its value is 36%.

Q: And the “% B/Bo” value (sulphonamide antibodies [1]; [5])?
A: Its value is 28%.

Q: How did the “% B/Bo” value (sulphonamide antibodies [1]; [3]) turn out when `COc1ccc(NS(=O)(=O)c2ccc(N)cc2)nn1` [Sulphamethoxypyridazine, sulphamethoxypyridazine] was run?
A: The value was 74%.

Q: What about the “% B/Bo” value (sulphonamide antibodies [1]; [4]) of the same compound?
A: The value was 84%.

Q: What about the “% B/Bo” value (sulphonamide antibodies [1]; [5]) of the same compound?
A: The value was 40%.

Q: What about the “% B/Bo” value (sulphonamide antibodies [2]; 10 ng/ml standard) of the same compound?
A: The value was 28%.

Q: And the “% B/Bo” value (sulphonamide antibodies [2]; 100 ng/ml standard)?
A: Its value is 15%.

Q: With `Nc1ccc(S(=O)(=O)Nc2cnc3ccccc3n2)cc1` [Sulphaquinoxaline, sulphaquinoxaline] as the compound, how does the “% B/Bo” value (sulphonamide antibodies [1]; [3]) read?
A: Its value is 58%.

Q: What about the “% B/Bo” value (sulphonamide antibodies [1]; [4]) of the same compound?
A: The value was 79%.

Q: And the “% B/Bo” value (sulphonamide antibodies [1]; [5])?
A: Its value is 53%.

Q: And the “% B/Bo” value (sulphonamide antibodies [1]; [6])?
A: The value was 93%.

Q: What about the “% B/Bo” value (sulphonamide antibodies [2]; 10 ng/ml standard) of the same compound?
A: Its value is 56%.

Q: What about the “% B/Bo” value (sulphonamide antibodies [2]; 100 ng/ml standard) of the same compound?
A: The value was 24%.

Q: How did the “% B/Bo” value (sulphonamide antibodies [1]; [3]) turn out when `Nc1ccc(S(=O)(=O)Nc2nccs2)cc1` [Sulphathiazole, sulphathiazole] was run?
A: The value was 32%.

Q: What about the “% B/Bo” value (sulphonamide antibodies [1]; [4]) of the same compound?
A: The value was 28%.

Q: What about the “% B/Bo” value (sulphonamide antibodies [1]; [5]) of the same compound?
A: Its value is 16%.

Q: How did the “% B/Bo” value (sulphonamide antibodies [1]; [3]) turn out when `Cc1noc(NS(=O)(=O)c2ccc(N)cc2)c1C` [Sulphisoxazole, sulphisoxazole] was run?
A: The value was 27%.

Q: And the “% B/Bo” value (sulphonamide antibodies [1]; [4])?
A: Its value is 23%.

Q: What about the “% B/Bo” value (sulphonamide antibodies [1]; [5]) of the same compound?
A: Its value is 9%.
